In the assay the test system is bladder. The assay is described as follows: in vivo cystometry (CMG) in urethane anesthetized rats, PGE2 model of bladder dysfunction. The following applies: intravesical infusion of PGE2 (100 μM), no stimulation, vs control rats (FIG. 5A). Also noted: species or system female Wistar rats. As to the method: In the following examples, an accepted animal model of bladder dysfunction was used: the PGE2 (prostoglandin E2) model, in which installation of PGE2 into rats induces a hyperactive bladder response. In addition, a cat model of bladder dysfunction was used. […] Acute experiments were conducted in urethane (1.2 g/kg, SC) anesthetized female Wistar rats using in vivo cystometry (CMG). A PE-90 catheter was placed to measure bladder pressure and for intravesical infusion of saline and PGE2 (100 μM). Bipolar electrodes were placed on the external urethral sphincter (EUS) to measure electromyographic (EMG) activity and a bipolar nerve cuff electrode was placed on the sensory branch of the pudendal nerve for stimulation. In a subset of trials after PGE2 infusion, electrical stimulation of the sensory branch of the pudendal nerve was delivered at different amplitudes (0.5-10× EUS reflex threshold, T) and frequencies (1-50 Hz). T may be determined as follows: a low frequency electrical signal, typically 1 Hz, is applied and the intensity of stimulation is increased (either by increasing the voltage or the current of the signal, preferably the current) until the pudendal nerve stimulation pulse produces a reflex EMG response in the EUS.

Structures are written as SMILES.

These results are taken from patent US12329967B2, “State-dependent peripheral neuromodulation to treat bladder dysfunction” (Duke University, priority 2015, dated 2025).

For the compound `CCCCC[C@H](O)/C=C/[C@H]1[C@H](O)CC(=O)[C@@H]1C/C=C\CCCC(=O)O` [PGE2, prostoglandin E2], the “changes in bladder capacity” value is “reduces bladder capacity”.
